In US20160150778A1, “PLASTIC HAVING A BIOCIDAL SURFACE AND METHOD FOR PRODUCING SAID PLASTIC” (JANSEN AG, priority 2013, published 2016):

Experiments:
[1] = discoloration / decomposition of quat on compounding into polyethylene melt; type: physicochemical; design: key: ++: heavy discoloration; +: discoloration; 0: weak discoloration; −: hardly any discoloration
Protocol: Experiments were carried out in which the additives shown in Table 2 were processed into a polyethylene melt in a concentration of 2.5%, 5% and 10% into polyethylene RT Dowlex 2388. The compounding conditions included 12 minutes of mixing at 210° C. Partial decomposition of the quat was observed during this step.
Part of the time, a strong violet coloration and a (“fishy”) smell of amines were observed, in particular with additives containing multiple methyl groups and at high concentrations. The probable decomposition mechanism is a Hofmann decomposition.

[2] = solubility of the oil in solvents; type: physicochemical
Protocol: A 250 mL flask was filled with 37.92 g (52.5 mmol) of PEG (400) ditosylate. Approximately 100 mL of acetone was added, followed by 16.5 g (approximately 21.6 mL or 104.9 mmol) of dimethyloctylamine. […] The oil was soluble in acetone, chloroform and water, but insoluble in ethyl acetate.

[3] = 2.5% additive in polyethylene RT Dowlex 2388, 12 minutes of mixing at 210° C
[4] = 5% additive in polyethylene RT Dowlex 2388, 12 minutes of mixing at 210° C
[5] = 10% additive in polyethylene RT Dowlex 2388, 12 minutes of mixing at 210° C

For Br.CCCCCCCCCCCCCCCCCCN(C)CCCCCCCCCCCCCCCCCC [additive D], the discoloration [1, 3] was “−”, the discoloration [1, 4] was “−” and the discoloration [1, 5] was 0.
With CCCCCCCCCCCCCCCCCC[N+](C)(C)C [additive B] the discoloration [1, 3] was 0, the discoloration [1, 4] was “+” and the discoloration [1, 5] was “++”.
For Br.CCCCCCCCCCCCCCCCCCN(CCCCCCCCCCCCCCCCCC)CCCCCCCCCCCCCCCCCC [additive E], the discoloration [1, 3] was “−”, the discoloration [1, 4] was “−” and the discoloration [1, 5] was “−”.
In the case of “α,ω-bis(dimethyloctylammonium)PEG(400) ditosylate”, the solubility ([2]; acetone) is reported as “soluble”, the solubility ([2]; chloroform) is reported as “soluble” and the solubility ([2]; ethyl acetate) is reported as “insoluble”. For the same molecule, the solubility ([2]; water) was “soluble”.
For CCCCCCCCCCCCCCCCCC[N+](C)(C)Cc1ccccc1 [additive A], the discoloration [1, 3] was “+”, the discoloration [1, 4] was “+” and the discoloration [1, 5] was “+”.
With CCCCCCCCCCCCCCCCCC[N+](C)(C)CCCCCCCCCCCCCCCCCC [additive C] the discoloration [1, 3] was 0, the discoloration [1, 4] was 0 and the discoloration [1, 5] was “+”.
